This note sets out measurements from the supplement of paper PMC9265050, “Inhibition of RNA Binding in SND1 Increases the Levels of miR-1-3p and Sensitizes Cancer Cells to Navitoclax” (Cancers, 2022).

The experiment has as its system SW480. The experiment can be described thus: drug sensitivity score (DSS, integrated dose-response area); higher = more sensitive (stronger viability reduction); extreme values may be limits of the assay. In a few lines:
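The drug sensitivity score is the integrated area under a fitted non-linear dose–response model. It was derived from SW480 cells with doxycycline-inducible control or SND1-targeting shRNA, induced with 0.1 µg/mL doxycycline for 7 days and plated at 1000 cells per well on 384-well plates of 525 commercially available small-molecule inhibitors at five concentrations. CellTiter-Glo measured viability after 72 h.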

Setting [1] is: shRNA: SND1 shRNA1 (SND1 silenced).
[2] abbreviates: shRNA: SND1 shRNA2 (SND1 silenced).
[3] abbreviates: shRNA: control shRNA (non-targeting).

In the case of `CC[C@]1(O)C[C@@H]2CN(CCc3c([nH]c4ccccc34)[C@@](C(=O)OC)(c3cc4c(cc3OC)N(C)[C@H]3[C@@](O)(C(=O)OC)[C@H](OC(C)=O)[C@]5(CC)C=CCN6CC[C@]43[C@@H]65)C2)C1` [Vinblastine], the drug sensitivity score runs as follows: under setting [1], 9.6 DSS; under setting [2], 8 DSS; under setting [3], 15.4 DSS.
On to `Cn1cc(-c2ccc3nnc(C(F)(F)c4ccc5ncccc5c4)n3n2)cn1`, for which the drug sensitivity score is, setting by setting: under setting [1], 0 DSS; under setting [2], 0 DSS; under setting [3], 1.3 DSS.
The compound `O=P1(N(CCCl)CCCl)NCCCO1` (centres undefined) [Cyclophosphamide] yielded a drug sensitivity score under setting [1] of 0 DSS, a drug sensitivity score under setting [2] of 0 DSS and a drug sensitivity score under setting [3] of 0 DSS.
Take `COc1cc2c(N3CCN(C(=O)Nc4ccc(OC(C)C)cc4)CC3)ncnc2cc1OCCCN1CCCCC1` [Tandutinib]: the drug sensitivity score is 0.5 DSS under setting [1], 4.3 DSS under setting [2] and 3 DSS under setting [3].
Turning to `C=CCNC1=C2C[C@@H](C)C[C@H](OC)[C@H](O)[C@@H](C)/C=C(\C)[C@H](OC(N)=O)[C@@H](OC)/C=C\C=C(/C)C(=O)NC(=CC1=O)C2=O` [Tanespimycin], the drug sensitivity score stood at 10.5 DSS under setting [1], 11.7 DSS under setting [2] and 16.1 DSS under setting [3].
In the case of `O=C(/C=C/c1cccnc1)NCCCCC1CCN(C(=O)c2ccccc2)CC1` [Daporinad], the drug sensitivity score is, setting by setting: under setting [1], 28.1 DSS; under setting [3], 27.8 DSS.
Consider `COc1ncc(-c2ccc3nccc(-c4ccnnc4)c3c2)cc1NS(=O)(=O)c1ccc(F)cc1F` [Omipalisib], for which the drug sensitivity score under setting [1] was 13.7 DSS, the drug sensitivity score under setting [2] was 12.4 DSS and the drug sensitivity score under setting [3] was found to be 9.7 DSS.
Take `CCCCc1nc2cc(/C=C/C(=O)NO)ccc2n1CCN(CC)CC` [Pracinostat]: the drug sensitivity score is, setting by setting: under setting [1], 21.1 DSS; under setting [2], 17.2 DSS; under setting [3], 19.3 DSS.
As to `CC[C@@H]1C(=O)OC[C@@H]1Cc1cncn1C` [Pilocarpine], the drug sensitivity score reads like this: under setting [1], 0.6 DSS; under setting [2], 0 DSS; under setting [3], 0.2 DSS.
Consider `C[C@@]1(C(=O)Nc2ccc(F)nc2)CCCN1c1nc(Nc2cc(C3CC3)n[nH]2)c2cccn2n1`, for which the drug sensitivity score by setting is: under setting [1], 8.1 DSS; under setting [2], 4.6 DSS; under setting [3], 2.4 DSS.
For `C/C(=C\c1csc(C)n1)[C@@H]1C[C@@H]2O[C@]2(C)CCC[C@H](C)[C@H](O)[C@@H](C)C(=O)C(C)(C)[C@@H](O)CC(=O)N1` [Ixabepilone], in that order: 3 DSS, 2.7 DSS and 2.5 DSS.
For `O=[N+]([O-])c1ccc2c(c1)S(=O)(=O)C=C2` [Stattic], in that order: 16 DSS, 15.8 DSS and 9.5 DSS.
For `CNC(=O)CN1CCC(Oc2cc3c(Nc4cccc(Cl)c4F)ncnc3cc2OC)CC1` [Sapitinib], in that order: 0.1 DSS, 5 DSS and 0 DSS.
In the case of `CC(C)n1nc(-c2ccc3oc(N)nc3c2)c2c(N)ncnc21` [MLN-0128], the drug sensitivity score reads like this: under setting [1], 14 DSS; under setting [2], 12.3 DSS; under setting [3], 9.8 DSS.
`Clc1ccc(C(c2ccccc2Cl)C(Cl)Cl)cc1` (centres undefined) [Mitotane] returned a drug sensitivity score under setting [1] of 0 DSS, a drug sensitivity score under setting [2] of 0 DSS and a drug sensitivity score under setting [3] of 0 DSS.
Regarding `CO[C@H]1C(=O)[C@]2(C)[C@@H](OC)C[C@H]3OC[C@@]3(OC(C)=O)[C@H]2[C@H](OC(=O)c2ccccc2)[C@]2(O)C[C@H](OC(=O)[C@H](O)[C@@H](NC(=O)OC(C)(C)C)c3ccccc3)C(C)=C1C2(C)C` [Cabazitaxel], the drug sensitivity score runs as follows: under setting [1], 18.7 DSS; under setting [2], 14.6 DSS; under setting [3], 20.3 DSS.
Regarding `C/C=C1\NC(=O)[C@H]2CSSCC/C=C/[C@H](CC(=O)N[C@H](C(C)C)C(=O)N2)OC(=O)[C@H](C(C)C)NC1=O` [Romidepsin], the drug sensitivity score is, setting by setting: under setting [1], 25.7 DSS; under setting [2], 25.1 DSS; under setting [3], 27.4 DSS.
As to `COc1ccc(COc2cc3oc(=O)c4cc(C(C)O)ccc4c3cc2OC)cc1` (centres undefined) [Palomid-529], the drug sensitivity score was determined as 0 DSS under setting [1], 0 DSS under setting [2] and 1.7 DSS under setting [3].
Regarding `CC1(COc2ccc3c(c2)ncn3-c2ccc3cccc(N4CCC(N)CC4)c3n2)COC1` [Crenolanib], the drug sensitivity score under setting [1] came out at 11.9 DSS, the drug sensitivity score under setting [2] was found to be 11.7 DSS and the drug sensitivity score under setting [3] is 13 DSS.
As for `CN1CCN(c2nc(C3=C(c4c[nH]c5ccccc45)C(=O)NC3=O)c3ccccc3n2)CC1` [Sotrastaurin], the drug sensitivity score runs as follows: under setting [1], 4.5 DSS; under setting [2], 0.5 DSS; under setting [3], 4.9 DSS.
In the case of `CC(C)NC[C@@H](C(=O)N1CCN(c2ncnc3c2[C@H](C)C[C@H]3O)CC1)c1ccc(Cl)cc1` [Ipatasertib], the drug sensitivity score turned out to be 3.5 DSS under setting [1], 9.7 DSS under setting [2] and 5.9 DSS under setting [3].
For `Cc1nc(-c2cn3c(n2)-c2ccc(-c4cnn(C(C)(C)C(N)=O)c4)cc2OCC3)n(C(C)C)n1` [Taselisib], in that order: 0 DSS, 0.7 DSS and 0 DSS.
As for `COc1cc(NS(C)(=O)=O)ccc1Nc1c2ccccc2nc2ccccc12` [Amsacrine], the drug sensitivity score came to 8.6 DSS under setting [1], 3.7 DSS under setting [2] and 7 DSS under setting [3].
The matching figures for `Cn1cnc2c(F)c(Nc3ccc(Br)cc3Cl)c(C(=O)NOCCO)cc21` [Selumetinib]: 19.1 DSS, 8.9 DSS and 4.7 DSS.
`CC(=O)[C@]1(O)Cc2c(O)c3c(c(O)c2[C@@H](O[C@H]2C[C@H](N)[C@H](O)[C@H](C)O2)C1)C(=O)c1ccccc1C3=O` [Idarubicin]: the drug sensitivity score runs as follows: under setting [1], 11.6 DSS; under setting [2], 9 DSS; under setting [3], 9.4 DSS.
Consider `CC(C)Cn1cnc2c(N)nc3ccccc3c21` [Imiquimod], for which the drug sensitivity score runs as follows: under setting [1], 0.9 DSS; under setting [2], 0.1 DSS; under setting [3], 3.5 DSS.
Take `Nc1ccn([C@@H]2O[C@H](CO)[C@@H](O)[C@@H]2O)c(=O)n1` [Cytarabine]: the drug sensitivity score was 5.4 DSS under setting [1], 0 DSS under setting [2] and 3.6 DSS under setting [3].
For `CN(C[C@@H]1COCCO1)S(=O)(=O)Nc1ccc2ccc3ncc(-c4cnn(C)c4)cc3c(=O)c2c1` [MK-2461], the drug sensitivity score under setting [1] amounted to 0.6 DSS, the drug sensitivity score under setting [2] turned out to be 0 DSS and the drug sensitivity score under setting [3] amounted to 0.3 DSS.
Consider `Cc1cccc(-c2nn3c(c2-c2ccnc4ccc(C(N)=O)cc24)CCC3)n1` [Galunisertib], for which the drug sensitivity score came out at 0 DSS under setting [1], 0 DSS under setting [2] and 0 DSS under setting [3].
Turning to `O=C(NOC[C@H](O)CO)c1ccc(F)c(F)c1Nc1ccc(I)cc1F`, the drug sensitivity score runs as follows: under setting [1], 17.9 DSS; under setting [2], 8.2 DSS; under setting [3], 9.5 DSS.
For the compound `CC(=O)O[C@]1(C(C)=O)CC[C@H]2[C@@H]3C=C(C)C4=CC(=O)CC[C@]4(C)[C@H]3CC[C@@]21C` [Megestrol acetate], the drug sensitivity score is, setting by setting: under setting [1], 0 DSS; under setting [2], 0 DSS; under setting [3], 0 DSS.
For `CN[C@@H](C)C(=O)N[C@H]1CN(C(=O)CC(C)C)CC[C@H]2CC[C@@H](C(=O)NC(c3ccccc3)c3ccccc3)N2C1=O` [AT-406], the drug sensitivity score amounted to 0 DSS under setting [1], 0 DSS under setting [2] and 0 DSS under setting [3].
Consider `C=C(c1ccc(C(=O)O)cc1)c1cc2c(cc1C)C(C)(C)CCC2(C)C` [Bexarotene], for which the drug sensitivity score reads like this: under setting [1], 0 DSS; under setting [2], 0 DSS; under setting [3], 0 DSS.
Compound `Cc1c(F)cc(C(=O)NC2CC2)cc1-c1ccc(C(=O)NCC(C)(C)C)cn1` [Losmapimod] gave a drug sensitivity score under setting [1] of 0 DSS, a drug sensitivity score under setting [2] of 0 DSS and a drug sensitivity score under setting [3] of 0 DSS.
As for `Nc1ccccc1NC(=O)c1ccc(CNc2nccc(-c3cccnc3)n2)cc1` [Mocetinostat], the drug sensitivity score runs as follows: under setting [1], 10.2 DSS; under setting [2], 6.1 DSS; under setting [3], 7.8 DSS.
Turning to `Cc1c(NC(=O)OC[C@@H]2COCCN2)cn2ncnc(Nc3ccc4c(cnn4Cc4cccc(F)c4)c3)c12`, the drug sensitivity score reads like this: under setting [1], 2 DSS; under setting [2], 3.1 DSS; under setting [3], 4 DSS.
On to `CN(C)/N=N/c1[nH]cnc1C(N)=O` [Dacarbazine], for which the drug sensitivity score worked out at 0 DSS under setting [1], 1.9 DSS under setting [2] and 0.7 DSS under setting [3].
The matching figures for `CNC(=O)c1ccc(C)c(-n2c(C)cc(OCc3ccc(F)cc3F)c(Br)c2=O)c1`: 0 DSS, 1 DSS and 0 DSS.
Compound `CC(=O)c1c(C)c2cnc(Nc3ccc(N4CCNCC4)cn3)nc2n(C2CCCC2)c1=O` [Palbociclib] came in with a drug sensitivity score under setting [1] of 10.6 DSS, a drug sensitivity score under setting [2] of 10.4 DSS and a drug sensitivity score under setting [3] of 6.6 DSS.
On to `CCc1c2c(nc3ccc(OC(=O)N4CCC(N5CCCCC5)CC4)cc13)-c1cc3c(c(=O)n1C2)COC(=O)[C@]3(O)CC` [Irinotecan], for which the drug sensitivity score by setting is: under setting [1], 3.2 DSS; under setting [2], 1.6 DSS; under setting [3], 5.5 DSS.
